# In PubChem BioAssay (NCI):
#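 Each compound was tested at five concentrations against cells in 96-well plates for 48 hours. GI50 is the concentration that inhibits growth by half. TGI is the concentration that stops growth completely.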
# Columns and labels:
# Assay in all cases: NCI-60 cell line screen, 48 h
# 786-0 renal = system: 786-0 renal
# A498 renal = system: A498 renal
# A549 NSCLC = system: A549 NSCLC
# ACHN renal = system: ACHN renal
# BT-549 breast = system: BT-549 breast
# CAKI-1 renal = system: CAKI-1 renal
# CCRF-CEM leukemia = system: CCRF-CEM leukemia
# COLO 205 colon = system: COLO 205 colon
# DU-145 prostate = system: DU-145 prostate
# EKVX NSCLC = system: EKVX NSCLC
# HCC-2998 colon = system: HCC-2998 colon
# HCT-116 colon = system: HCT-116 colon
# HCT-15 colon = system: HCT-15 colon
# HL-60(TB) leukemia = system: HL-60(TB) leukemia
# HOP-62 NSCLC = system: HOP-62 NSCLC
# HOP-92 NSCLC = system: HOP-92 NSCLC
# HS 578T breast = system: HS 578T breast
# HT29 colon = system: HT29 colon
# IGROV1 ovarian = system: IGROV1 ovarian
# K-562 leukemia = system: K-562 leukemia
# KM12 colon = system: KM12 colon
# LOX IMVI melanoma = system: LOX IMVI melanoma
# M14 melanoma = system: M14 melanoma
# MALME-3M melanoma = system: MALME-3M melanoma
# MCF7 breast = system: MCF7 breast
# MDA-MB-231 breast = system: MDA-MB-231 breast
# MDA-MB-435 = system: MDA-MB-435
# MOLT-4 leukemia = system: MOLT-4 leukemia
# NCI-H226 lung = system: NCI-H226 lung
# NCI-H23 lung = system: NCI-H23 lung
# NCI-H460 lung = system: NCI-H460 lung
# NCI-H522 lung = system: NCI-H522 lung
# NCI/ADR-RES ovarian = system: NCI/ADR-RES ovarian
# OVCAR-3 ovarian = system: OVCAR-3 ovarian
# OVCAR-4 ovarian = system: OVCAR-4 ovarian
# OVCAR-5 ovarian = system: OVCAR-5 ovarian
# OVCAR-8 ovarian = system: OVCAR-8 ovarian
# PC-3 prostate = system: PC-3 prostate
# RPMI-8226 leukemia = system: RPMI-8226 leukemia
# RXF 393 renal = system: RXF 393 renal
# SF-268 CNS = system: SF-268 CNS
# SF-295 CNS = system: SF-295 CNS
# SF-539 CNS = system: SF-539 CNS
# SK-MEL-2 melanoma = system: SK-MEL-2 melanoma
# SK-MEL-28 melanoma = system: SK-MEL-28 melanoma
# SK-MEL-5 melanoma = system: SK-MEL-5 melanoma
# SK-OV-3 ovarian = system: SK-OV-3 ovarian
# SN12C renal = system: SN12C renal
# SNB-19 CNS = system: SNB-19 CNS
# SNB-75 CNS = system: SNB-75 CNS
# SR leukemia = system: SR leukemia
# SW-620 colon = system: SW-620 colon
# T-47D breast = system: T-47D breast
# TK-10 renal = system: TK-10 renal
# U251 CNS = system: U251 CNS
# UACC-257 melanoma = system: UACC-257 melanoma
# UACC-62 melanoma = system: UACC-62 melanoma
# UO-31 renal = system: UO-31 renal
# MDA-N = system: MDA-N
smiles,measurement,setting,value
COc1cc(C2CC(c3ccc4c(c3)OCO4)=NN2C(C)=O)cc(OC)c1OC (stereo not given),GI50,786-0 renal,3.65 µM
same,TGI,786-0 renal,> 100 µM
same,GI50,A498 renal,0.296 µM
same,TGI,A498 renal,4.75 µM
same,GI50,A549 NSCLC,2.42 µM
same,TGI,A549 NSCLC,> 100 µM
same,GI50,ACHN renal,3.66 µM
same,TGI,ACHN renal,> 100 µM
same,GI50,BT-549 breast,6.82 µM
same,TGI,BT-549 breast,> 100 µM
same,GI50,CAKI-1 renal,0.715 µM
same,TGI,CAKI-1 renal,> 100 µM
same,GI50,CCRF-CEM leukemia,0.79 µM
same,TGI,CCRF-CEM leukemia,> 27 µM
same,GI50,COLO 205 colon,0.466 µM
same,TGI,COLO 205 colon,2.6 µM
same,GI50,DU-145 prostate,1.06 µM
same,TGI,DU-145 prostate,> 21.4 µM
same,GI50,EKVX NSCLC,3.13 µM
same,TGI,EKVX NSCLC,> 100 µM
same,GI50,HCC-2998 colon,2.36 µM
same,TGI,HCC-2998 colon,60 µM
same,GI50,HCT-116 colon,0.491 µM
same,TGI,HCT-116 colon,> 100 µM
same,GI50,HCT-15 colon,0.584 µM
same,TGI,HCT-15 colon,> 100 µM
same,GI50,HL-60(TB) leukemia,0.316 µM
same,TGI,HL-60(TB) leukemia,2.92 µM
same,GI50,HOP-62 NSCLC,1.14 µM
same,TGI,HOP-62 NSCLC,> 100 µM
same,GI50,HOP-92 NSCLC,> 100 µM
same,TGI,HOP-92 NSCLC,> 100 µM
same,GI50,HS 578T breast,1.26 µM
same,TGI,HS 578T breast,> 74.1 µM
same,GI50,HT29 colon,0.378 µM
same,TGI,HT29 colon,> 100 µM
same,GI50,IGROV1 ovarian,1.19 µM
same,TGI,IGROV1 ovarian,97.3 µM
same,GI50,K-562 leukemia,0.353 µM
same,TGI,K-562 leukemia,> 100 µM
same,GI50,KM12 colon,0.422 µM
same,TGI,KM12 colon,52.9 µM
same,GI50,LOX IMVI melanoma,1.89 µM
same,TGI,LOX IMVI melanoma,> 100 µM
same,GI50,M14 melanoma,0.536 µM
same,TGI,M14 melanoma,> 39.7 µM
same,GI50,MALME-3M melanoma,1.88 µM
same,TGI,MALME-3M melanoma,> 100 µM
same,GI50,MCF7 breast,0.352 µM
same,TGI,MCF7 breast,> 100 µM
same,GI50,MDA-MB-231 breast,4.07 µM
same,TGI,MDA-MB-231 breast,> 100 µM
same,GI50,MDA-MB-435,0.183 µM
same,TGI,MDA-MB-435,0.674 µM
same,GI50,MOLT-4 leukemia,1.05 µM
same,TGI,MOLT-4 leukemia,> 50.5 µM
same,GI50,NCI-H226 lung,13.5 µM
same,TGI,NCI-H226 lung,> 100 µM
same,GI50,NCI-H23 lung,1.81 µM
same,TGI,NCI-H23 lung,> 100 µM
same,GI50,NCI-H460 lung,0.398 µM
same,TGI,NCI-H460 lung,> 59.8 µM
same,GI50,NCI-H522 lung,0.382 µM
same,GI50,NCI/ADR-RES ovarian,0.405 µM
same,GI50,OVCAR-3 ovarian,0.297 µM
same,TGI,OVCAR-3 ovarian,0.808 µM
same,GI50,OVCAR-4 ovarian,5.45 µM
same,TGI,OVCAR-4 ovarian,> 100 µM
same,GI50,OVCAR-5 ovarian,4.28 µM
same,TGI,OVCAR-5 ovarian,> 100 µM
same,GI50,OVCAR-8 ovarian,5.51 µM
same,TGI,OVCAR-8 ovarian,> 100 µM
same,GI50,PC-3 prostate,4.39 µM
same,TGI,PC-3 prostate,> 100 µM
same,GI50,RPMI-8226 leukemia,2.74 µM
same,TGI,RPMI-8226 leukemia,> 25.7 µM
same,GI50,RXF 393 renal,1.56 µM
same,TGI,RXF 393 renal,> 23.2 µM
same,GI50,SF-268 CNS,6.42 µM
same,TGI,SF-268 CNS,> 100 µM
same,GI50,SF-295 CNS,0.368 µM
same,TGI,SF-295 CNS,4.51 µM
same,GI50,SF-539 CNS,0.592 µM
same,TGI,SF-539 CNS,7.29 µM
same,GI50,SK-MEL-2 melanoma,> 100 µM
same,TGI,SK-MEL-2 melanoma,> 100 µM
same,GI50,SK-MEL-28 melanoma,4.97 µM
same,TGI,SK-MEL-28 melanoma,> 100 µM
same,GI50,SK-MEL-5 melanoma,0.419 µM
same,TGI,SK-MEL-5 melanoma,8.07 µM
same,GI50,SK-OV-3 ovarian,0.972 µM
same,TGI,SK-OV-3 ovarian,> 65.8 µM
same,GI50,SN12C renal,7.48 µM
same,TGI,SN12C renal,> 100 µM
same,GI50,SNB-19 CNS,1.91 µM
same,TGI,SNB-19 CNS,> 100 µM
same,GI50,SNB-75 CNS,0.398 µM
same,TGI,SNB-75 CNS,3.5 µM
same,GI50,SR leukemia,0.33 µM
same,TGI,SR leukemia,> 37 µM
same,GI50,SW-620 colon,0.426 µM
same,TGI,SW-620 colon,> 100 µM
same,GI50,T-47D breast,1.44 µM
same,TGI,T-47D breast,> 64.8 µM
same,GI50,TK-10 renal,7.59 µM
same,TGI,TK-10 renal,> 100 µM
same,GI50,U251 CNS,0.899 µM
same,TGI,U251 CNS,> 100 µM
same,GI50,UACC-257 melanoma,> 35.2 µM
same,TGI,UACC-257 melanoma,> 100 µM
same,GI50,UACC-62 melanoma,0.493 µM
same,TGI,UACC-62 melanoma,> 100 µM
same,GI50,UO-31 renal,3.72 µM
same,TGI,UO-31 renal,> 86.8 µM
CO[C@@](c1ccccc1)(c1nc(C#N)c(N)o1)C(F)(F)F,TGI,786-0 renal,> 100 µM
same,TGI,A498 renal,> 100 µM
same,TGI,A549 NSCLC,> 100 µM
same,TGI,ACHN renal,> 100 µM
same,TGI,CAKI-1 renal,> 100 µM
same,TGI,CCRF-CEM leukemia,74.7 µM
same,TGI,COLO 205 colon,> 100 µM
same,TGI,DU-145 prostate,> 100 µM
same,TGI,EKVX NSCLC,> 100 µM
same,TGI,HCC-2998 colon,> 100 µM
same,TGI,HCT-116 colon,> 100 µM
same,TGI,HCT-15 colon,> 100 µM
same,TGI,HOP-62 NSCLC,> 100 µM
same,TGI,HOP-92 NSCLC,> 100 µM
same,TGI,IGROV1 ovarian,> 100 µM
same,TGI,K-562 leukemia,> 100 µM
same,TGI,KM12 colon,> 100 µM
same,TGI,LOX IMVI melanoma,> 100 µM
same,TGI,M14 melanoma,> 100 µM
same,TGI,MALME-3M melanoma,> 100 µM
same,TGI,MCF7 breast,> 100 µM
same,TGI,MDA-MB-231 breast,> 100 µM
same,TGI,MDA-MB-435,> 100 µM
same,TGI,MDA-N,> 100 µM
same,TGI,MOLT-4 leukemia,> 100 µM
same,TGI,NCI-H226 lung,> 100 µM
same,TGI,NCI-H23 lung,> 100 µM
same,TGI,NCI-H522 lung,85.9 µM
same,TGI,NCI/ADR-RES ovarian,> 100 µM
same,TGI,OVCAR-3 ovarian,> 100 µM
same,TGI,OVCAR-4 ovarian,> 100 µM
same,TGI,OVCAR-8 ovarian,> 100 µM
same,TGI,PC-3 prostate,> 100 µM
same,TGI,RPMI-8226 leukemia,> 100 µM
same,TGI,RXF 393 renal,> 100 µM
same,TGI,SF-295 CNS,> 100 µM
same,TGI,SF-539 CNS,> 100 µM
same,TGI,SK-MEL-2 melanoma,> 100 µM
same,TGI,SK-MEL-28 melanoma,> 100 µM
same,TGI,SK-MEL-5 melanoma,> 100 µM
same,TGI,SK-OV-3 ovarian,> 100 µM
same,TGI,SN12C renal,> 100 µM
same,TGI,SNB-19 CNS,> 100 µM
same,TGI,SNB-75 CNS,> 100 µM
same,TGI,SW-620 colon,> 100 µM
same,TGI,T-47D breast,> 100 µM
same,TGI,TK-10 renal,> 100 µM
same,TGI,U251 CNS,> 100 µM
same,TGI,UACC-257 melanoma,> 100 µM
same,TGI,UACC-62 melanoma,> 100 µM
same,TGI,UO-31 renal,> 100 µM
